Source: patent publication US20030232851A1, “Viral treatment” (The Procter & Gamble Company, priority 1999, published 2003)
Values after ≈ are worked out from the molar mass of the structure shown. Values joined by “and” are separate entries in the source; they are usually repeats but may differ in a detail not shown here. Equal entries are not always repeated.

Columns and labels:
HIV-1 protease = target: T1, HIV-1 protease (Human immunodeficiency virus type 1 group M subtype B, UniProt P04585); test: Protease inhibition assay (fluorometric); assay type: biochemical; conditions: for Protease Inhibition, sample reading: sample 1, sample 2, hydrochloride salt
T1 construct: precludes use of the fluorometric HIV-1 protease assay; purchased Bachem
Protocol: Protease inhibition is evaluated using a fluorometric method. Enzyme (Bachem) is diluted to 116 μgm/ml in 50 mM NaOAC, 5 mM DTT, 2 mM EDTA, 10% glycerol (pH 5.0) and stored as 10 μl samples at −20° C., HIV protease substrates I (Molecular Probes) is diluted to a working concentration of 0.32 nmoles/μl. Enzyme (20 μl) and drug (20 μl) are added to each well of a microtiter plate as appropriate. Positive and negative controls are evaluated in parallel. Fluorescence is quantitated on Labsystems Fluroskan II using 355 nm/460 nm at 37° C. at time zero and at 30 minute intervals for 2 hours. In instances where autofluorescence precludes use of the fluorometric HIV-1 protease assay or confirmation of a result is required, an HPLC based protease assay can be employed.

HIV-1 integrase = HIV-1 integrase (Human immunodeficiency virus type 1 group M subtype B, UniProt P04585); test: HIV-1 integrase inhibition assay; assay type: biochemical; parameters: HIV-1 Integrase Inhibition, sample reading / HIV-1 Integrase Inhibition, mean: unit not given here; conditions: for HIV-1 Integrase Inhibition, sample reading: sample 1, sample 2, hydrochloride salt
From the text: A biochemical integrase assay described by Craigie et at (HIV, vol. 2: A practical Approach) Biochemistry, Molecular Biology and Drug Discovery, Ed. J. Kam 1995) to screen agents for their ability to inhibit HIV-1 integrase. In this system, a kinased oligonucleotide serves as the target of 3′ processing and the subsequent strand transfer reaction. The 3′ processing reaction involves the removal of 2 nucleotides from the 3′ ends of the substrate and this is followed by the strand transfer reaction in which the 3′ ends are joined to the exposed 5′ ends. The 20 μl reaction mixture contains 25 mM MOPS (pH 7.2), […] BSA, 10 mM β-mercaptoethanol, 10% glycerol, 7.5 mM MnCl2, 25 nM (7 ng) substrate (Oligo's Etc., Wilsonville, Oreg.) and 200 nM (128 ng) integrase (NIAID AIDS Research and Reference Reagent Program, Bethesda, Md.). The reaction proceeds at 37° C. for 1-2 hours and is terminated by the addition of 20 μl of sequencing stop solution (JSB Amersham, Arlington Heights, Ill.). The reaction products are visualized by autoradiography following electrophoresis in 15% polyacrylamide 6M Urea gel. The substrate migrates as a 30 mer, the product of 3′ processing migrates as an N-2 band and the strand transfer products migrate more slowly at various sizes larger than the substrate.

hepatitis B, HEPG22.2.15 = test: In vitro virus production test of hepatitis B, DNA copy number; assay type: cell-based
HEPG22.2.15 = test: Hepatitis B test: toxicity values; assay type: cell-based
vero cells = tested on: vero cells; parameters: unit not given beside the values; conditions: African green monkey
Curvularia lunata = test: Anti-fungal activity (NCCLS M-27A based), Curvularia lunata; assay type: cell-based; conditions: growth inhibited or reduced at least 90%
Protocol: (§1) It was active against cryptococcus neoformans and curvularai lunata. The cidal activity for the C. neoformans is high enough that it is clear […] against this yeast. This test was conducted using a method based upon NCCLS reference method M-27A published in 1997. Solvent, medium and growth controls were set-up with the tests. Once these were read to validate the test performance, the QC fungi were read to insure they had expected results. These steps validated the test system. DMSO was used as a drug-chemical solvent. […] The 90% cut-off is necessary for azoles, which are static and not cidal. The FMC or cidal level was determined by sub-culturing a sample from each tube showing no growth.

Cryptococcus neoformans = test: Anti-fungal activity (NCCLS M-27A based), Cryptococcus neoformans; assay type: cell-based
Protocol: as §1

SMILES: Cl.c1csc(-c2nc3ncccc3[nH]2)c1 [2-(2-thienyl)-imidazolo [4,5-b]pyridine hydrochloride salt]
- Protease Inhibition, mean (HIV-1 protease; 1 nM): 26.3
- Protease Inhibition, sample reading (HIV-1 protease; 1 nM): 29.9 and 22.6
- Protease Inhibition, mean (HIV-1 protease; 10 nM): 35.0
- Protease Inhibition, sample reading (HIV-1 protease; 10 nM): 36.0 and 34.1
- Protease Inhibition, mean (HIV-1 protease; 100 nM): 84.8
- Protease Inhibition, sample reading (HIV-1 protease; 100 nM): 85.4 and 84.2
- Protease Inhibition, mean (HIV-1 protease; 1000 nM): 247.3
- Protease Inhibition, sample reading (HIV-1 protease; 1000 nM): 245.7 and 248.8
- EC50 (HIV-1 integrase): > 421 µM
- HIV-1 Integrase Inhibition, mean (HIV-1 integrase; 0.1 μg/ml): 9144
- HIV-1 Integrase Inhibition, sample reading (HIV-1 integrase; 0.1 μg/ml): 9338.5 and 8948.8
- HIV-1 Integrase Inhibition, mean (HIV-1 integrase; 1 μg/ml): 12194
- HIV-1 Integrase Inhibition, sample reading (HIV-1 integrase; 1 μg/ml): 11838.2 and 12550.7
- HIV-1 Integrase Inhibition, mean (HIV-1 integrase; 10 μg/ml): 12299
- HIV-1 Integrase Inhibition, sample reading (HIV-1 integrase; 10 μg/ml): 10848.3 and 13750.3
- HIV-1 Integrase Inhibition, mean (HIV-1 integrase; 100 μg/ml): 10570
- HIV-1 Integrase Inhibition, sample reading (HIV-1 integrase; 100 μg/ml): 10212.5 and 10928.4

SMILES: Nc1ccn([C@@H]2CS[C@H](CO)O2)c(=O)n1 [3TC, lamivudine]
- DNA Copy Number, % virus control (hepatitis B, HEPG22.2.15; 0.0032 μg/ml): 97.8%
- DNA Copy Number, mean (hepatitis B, HEPG22.2.15; 0.0032 μg/ml): 280.4 per 3 μl
- DNA Copy Number, samples 1-3 (hepatitis B, HEPG22.2.15; 0.0032 μg/ml): 265.4 per 3 μl and 328.0 per 3 μl and 247.9 per 3 μl
- DNA Copy Number, % virus control (hepatitis B, HEPG22.2.15; 0.01 μg/ml): 87.8%
- DNA Copy Number, mean (hepatitis B, HEPG22.2.15; 0.01 μg/ml): 251.7 per 3 μl
- DNA Copy Number, samples 1-3 (hepatitis B, HEPG22.2.15; 0.01 μg/ml): 286.1 per 3 μl and 276.7 per 3 μl
- DNA Copy Number, % virus control (hepatitis B, HEPG22.2.15; 0.032 μg/ml): 80.4%
- DNA Copy Number, mean (hepatitis B, HEPG22.2.15; 0.032 μg/ml): 230.4 per 3 μl
- DNA Copy Number, samples 1-3 (hepatitis B, HEPG22.2.15; 0.032 μg/ml): 243.2 per 3 μl and 255.3 per 3 μl
- DNA Copy Number, % virus control (hepatitis B, HEPG22.2.15; 0.1 μg/ml): 24.2%
- DNA Copy Number, mean (hepatitis B, HEPG22.2.15; 0.1 μg/ml): 69.4 per 3 μl
- DNA Copy Number, samples 1-3 (hepatitis B, HEPG22.2.15; 0.1 μg/ml): 73.0 per 3 μl and 74.8 per 3 μl and 60.5 per 3 μl
- DNA Copy Number, % virus control (hepatitis B, HEPG22.2.15; 0.32 μg/ml): 13.1%
- DNA Copy Number, mean (hepatitis B, HEPG22.2.15; 0.32 μg/ml): 46.1 per 3 μl
- DNA Copy Number, samples 1-3 (hepatitis B, HEPG22.2.15; 0.32 μg/ml): 36.7 per 3 μl and 45.1 per 3 μl and 56.5 per 3 μl
- DNA Copy Number, % virus control (hepatitis B, HEPG22.2.15; 1 μg/ml): 1.4%
- DNA Copy Number, mean (hepatitis B, HEPG22.2.15; 1 μg/ml): 4.0 per 3 μl
- IC50 (hepatitis B, HEPG22.2.15; HepG2 2.2.15, first experiment): 0.089 µg/mL (≈ 0.388 µM)
- IC50 (hepatitis B, HEPG22.2.15; HepG2 2.2.15, replicate experiment): 0.021 µg/mL (≈ 0.0916 µM)
- Toxicity Values, % cell control (HEPG22.2.15; 0.0032 μg/ml): 90.8%
- Toxicity Values, mean (HEPG22.2.15; 0.0032 μg/ml): 1.137
- Toxicity Values, samples 1-3 (HEPG22.2.15; 0.0032 μg/ml): 1.009 and 1.173 and 1.230
- Toxicity Values, % cell control (HEPG22.2.15; 0.01 μg/ml): 84.6%
- Toxicity Values, mean (HEPG22.2.15; 0.01 μg/ml): 1.060
- Toxicity Values, samples 1-3 (HEPG22.2.15; 0.01 μg/ml): 1.001 and 1.081 and 1.099
- Toxicity Values, % cell control (HEPG22.2.15; 0.032 μg/ml): 94.3%
- Toxicity Values, mean (HEPG22.2.15; 0.032 μg/ml): 1.181
- Toxicity Values, samples 1-3 (HEPG22.2.15; 0.032 μg/ml): 1.074 and 1.153 and 1.316
- Toxicity Values, mean (HEPG22.2.15; 0.1 μg/ml): 1.190
- Toxicity Values, samples 1-3 (HEPG22.2.15; 0.1 μg/ml): 1.151 and 1.220 and 1.200
- Toxicity Values, % cell control (HEPG22.2.15; 0.32 μg/ml): 93.6%
- Toxicity Values, mean (HEPG22.2.15; 0.32 μg/ml): 1.172
- Toxicity Values, samples 1-3 (HEPG22.2.15; 0.32 μg/ml): 1.082 and 1.207 and 1.227
- Toxicity Values, % cell control (HEPG22.2.15; 1 μg/ml): 106.5%
- Toxicity Values, mean (HEPG22.2.15; 1 μg/ml): 1.334
- Toxicity Values, samples 1-3 (HEPG22.2.15; 1 μg/ml): 1.423 and 1.256 and 1.322
- TC50 (HEPG22.2.15; first experiment): > 1 µg/mL
- TC50 (HEPG22.2.15; replicate experiment): > 1 µg/mL

SMILES: Nc1nc2c(ncn2COCCO)c(=O)[nH]1 [Acyclovir]
- TC50 (vero cells): > 1

SMILES: C[C@@H]1[C@H](O)[C@@H](C)/C=C/C=C/C=C/C=C/C=C/C=C/C=C/[C@H](O[C@@H]2O[C@H](C)[C@@H](O)[C@H](N)[C@@H]2O)C[C@@H]2O[C@](O)(C[C@@H](O)C[C@@H](O)[C@H](O)CC[C@@H](O)C[C@@H](O)CC(=O)O[C@H]1C)C[C@H](O)[C@H]2C(=O)O [AmB, amphotericin B]
- MIC data (Curvularia lunata): 0.03 µg/mL (≈ 0.0325 µM)
- MFC data (Cryptococcus neoformans; cidal level): 1 µg/mL (≈ 1.08 µM)
- MIC data (Cryptococcus neoformans; growth inhibited or reduced at least 90%): 0.25 µg/mL (≈ 0.271 µM)
